Results as given in patent US12569459B2, “Compositions and methods for treating pulmonary edema or lung inflammation” (priority 2020, dated 2026).

Columns and labels:
[1] = system: rat lung mucosa and airspaces; settings: in vivo
Method: Using aseptic technique, vials of liothyronine sodium were opened and the entire contents were transferred into sterile 1.5 mL Eppendorf tubes. 80-90 μL of 1.0 N HCl was added to the tube and gently vortexed, and the pH was measured using pH test strips (pH 4.5 to 10.0, Ricca Chemical Co., Arlington, TX). Additional HCl was titrated in gradually, as needed, until the pH was in the desired range. […] This solution was stored at 4° C. and used for up to 26 hours after pH adjustment procedure.

[2] = in vivo; design: species or system Sprague-Dawley rats; settings: Sprague-Dawley, rat; for Cmax_D / Vz_F_obs / AUC(0-inf): inhaled or intranasal; for AUC(0-inf): 2.73 ug
Method: Sixty animals (plus two spare animals/sex/group) were anesthetized and dosed via intratracheal instillation of test or control materials for five consecutive days. On the day after the last dose a terminal blood collection was performed for clinical pathology, after which animals were euthanized and a gross examination of all organs was performed by a board-certified veterinary pathologist. Select tissues were collected for histopathology. […] Terminal blood collection was performed at two designated time points per animal up to 24 hours after administration for toxicokinetic evaluation. TK animals were euthanized without further evaluation after the final blood collection. All animals were acclimated for a minimum of seven days prior to the dosing procedure. Animals underwent baseline observations and examinations prior to the initiation of the study, and clinical observations and body weight monitoring were performed throughout the in-life portion of the study. All animals received the same dose volume (0.3 mL) of either test or control materials. This maximum feasible dose (MFD) is constrained by the maximum volume that can be safely and reproducibly (over five days) instilled into lungs of rats weighing 250 g to 350 g, which was determined in preliminary toxicology studies to be 0.3 mL. Actual doses delivered are reported as both μg/kg body weight and μg/gm wet lung weight. The toxicity phase animals were 72-135 days of age at the time of initial dosing. Males weighed between 256.52 g and 307.50 g with a mean±standard deviation of 286.74±11.77 g, and females weighed between 250.46 g and 299.01 g with a mean±standard deviation of 260.64±10.34 g. The TK phase animals were 68-144 days of age at the time of initial dosing. Males weighed between 261.23 g and 316.19 g; females weighed between 250.06 g and 280.32 g.
For toxicokinetic experiments, rats were anesthetized with combination of ketamine 40 mg/kg to 200 mg/kg and xylazine 1 mg/kg to 7 mg/kg, intraperitoneally (IP), to effect for dosing procedures, and dosed intratracheally with liothyronine sodium injection as previously described. Depending on the duration of time between dosing and the first or second blood collection time points, animals either had blood collected while still anesthetized under the injectable anesthetics, or if recovered, they were anesthetized with Isoflurane 2-5% and oxygen 1-1.5 L/minute by inhalation anesthesia via nose cone, as needed, to maintain adequate anesthesia depth (assessed by toe pinch). Topical proparicaine anesthetic ophthalmic solution was applied to each eye prior to performing the first blood collection and allowed time to take effect. Collection of serum samples for TK analysis was as described for serum chemistry samples above, and samples were stored at ≤−70° C. until assayed. Animals were euthanized with EUTHASOL (Virbac Corp., Fort Worth, TX)≥86 mg/kg IP to effect following the final blood collection.
For assessment of serum T3 levels samples were sent to the Fairview University of Minnesota Medical Center East Bank Diagnostic Laboratory for analysis, a clinical laboratory certified by CLIA and CAP. Prior to sending serum samples to the analytical lab each sample was diluted 1:4 or 1:8 in normal (0.9%) saline. […] Samples were analyzed by a chemiluminescence assay for total triiodothyronine (T3).
Toxicokinetic parameters were estimated using Phoenix 64 WinNonlin pharmacokinetic software version 7.0. (Pharsight Corp., Mountain View, CA). A non-compartmental (NCA) approach consistent with the route of administration was used for parameter estimation. […] Whenever possible, mean concentrations were derived from three animals/gender/time point. Parameters were estimated using sampling times relative to the start of each dose administration. The raw data was converted to ng/ml of serum by dividing the […] values by 100 and then multiplying by the dilution factor for that sample, either 4 or 8. […]

[3] = Preliminary dose-finding studies, intravenous vs intratracheal 3.0 μg neutral pH T3; assay type: in vivo, rats
Method: FIG. 6. […] A single dose of T3 was administered intravenously (diamonds) or via intratracheal instillation (squares). Samples were analyzed for total T3 using a chemiluminescence assay.

[4] = system: Sprague Dawley rats exposed to normobaric hyperoxia; assay: Hyperoxia-induced lung injury (HALI) model with intraperitoneal T3
[5] = system: Nrf2; assay: Western blot of Nrf2 protein in RLE-6TN cells under hyperoxia; assay type: cell-based, rat; settings: 24 hours hyperoxia, T3 10^−6 M
Text: FIG. 9. […] The cells were then collected for Western Blotting analysis. (A) Cellular total protein of Nrf2. (B) Nuclear Nrf2.
FIG. 12. T3-induced increase in Nrf2 and HO-1 protein via PI3K in hyperoxia. (A) Western Blot and densitometry data for total Nrf2. (B) Western Blot and densitometry data for cytoplasmic Nrf2. (C) Western Blot and densitometry data for nuclear Nrf2.
At the end of the hyperoxia exposure period, the viable cells were counted by trypan blue dye exclusion.
Nuclei were extracted with NE-PER nuclear and cytoplasmic extraction reagents kit (Thermo Fisher Scientific, Inc., Waltham, MA) following the manufacturer's instruction.
The cells were lysed in lysis buffer containing 20 mM Tris HCl (pH 7.5), 150 mM NaCl, 1 mM EDTA, 1 mM EGTA, 1% (vol/vol) Triton X-100 with protease inhibitors (1 mM PMSF, 2 μg/ml pepstatin, and 10 μg/ml each of aprotinin and leupeptin), and phosphatase inhibitors (2.5 mM sodium pyrophosphate, 1 mM β-glycerophosphate, and 1 mM Na3VO4). The lysate was drawn 10 times through a 25-gauge needle on ice for further lysis and then was centrifuged at 13,000 rpm for 15 minutes at 4° C. The supernatant was collected, and the protein concentrations were determined by use of the BCA protein assay kit (Sigma-Aldrich, St. Louis, MO). Immediately after this step, equal amounts of protein were subjected to Western blotting analysis.

[6] = 3.0 μg T3 intratracheally vs 3.0 μg intravenously

With `N[C@@H](Cc1cc(I)c(Oc2ccc(O)c(I)c2)c(I)c1)C(=O)O` [T3, triiodothyronine] the “Toxicity of instillation into airway and lung” value [1] was “extremely toxic to rat lung mucosa and airspaces”, the Cl_F_obs ([2]; female) was 30.10 mL/h and the HL_Lambda_z ([2]; female) was 2.85 h. It also gave a Cmax_D ([2]; female) of 6.12 ng/mL/µg, a Vz_F_obs ([2]; female) of 123.60 mL and an AUC(0-inf) ([2]; female) of 89.7 ng·h/mL. The Cl_F_obs ([2]; male) was 74.29 mL/h, the HL_Lambda_z ([2]; male) was 3.17 h and the Cmax_D ([2]; male) was 2.44 ng/mL/µg. The Vz_F_obs ([2]; male) was 339.44 mL, the AUC(0-inf) ([2]; male) was 36.3 ng·h/mL and the “AUC after intratracheal relative to intravenous administration” value [3, 6] was “⅕”. The “T3 Cmax after intratracheal relative to intravenous administration” value [3, 6] was 1/17, the “Acute effects on physiologic parameters (respiratory rate, O2 saturation, heart rate)” value ([3]; single intravenous delivery or five days of intratracheal delivery of 3.0 μg neutral pH T3) was “no acute effects on physiologic parameters” and the BALF protein concentration ([4]; 48-hour and 60-hour time points of hyperoxia, vs hyperoxia alone) was “attenuated significantly the hyperoxic increases in the BALF protein concentration”. The “Serum total T3” value ([4]; 95% oxygen 60 hours, intraperitoneal T3 supplementation (50 μg/kg bodyweight/24 hours)) was “augmented serum total T3”, the “MPO-positive cells in the lungs (immunostaining)” value ([4]; 95% oxygen 60 hours, vs hyperoxic lungs without T3) was “fewer MPO-positive cells” and the BALF cell numbers ([4]; 48 hours and 60 hours of 95% oxygen, vs hyperoxia alone) was “significantly reduced the BALF cell numbers”. For the same molecule, the “Lung morphology (histopathology)” value ([4]; 60 hours hyperoxia, systemic T3 supplementation) was “persistence of virtually normal lung morphology”, the “Lung MPO activity” value ([4]; 60 hours of hyperoxia) was “significantly reduced the hyperoxia-induced MPO activity” and the “Total cellular and nuclear Nrf2 protein” value [5] was “significantly increased both total cellular and nuclear Nrf-2 protein expression”.
